Patent publication US12583849B2, “KCNT1 inhibitors and methods of use” (Praxis Precision Medicines, Inc., priority 2020, dated 2026)

Molecular target: T1, KCNT1 (KNa1.1, Slack) (Homo sapiens, UniProt Q5JUK3)
T1 construct: expressed in transfected cells; host or cells: HEK-TREX (tetracycline-inducible cell line)
T1 sequence (Q5JUK3 1-1230): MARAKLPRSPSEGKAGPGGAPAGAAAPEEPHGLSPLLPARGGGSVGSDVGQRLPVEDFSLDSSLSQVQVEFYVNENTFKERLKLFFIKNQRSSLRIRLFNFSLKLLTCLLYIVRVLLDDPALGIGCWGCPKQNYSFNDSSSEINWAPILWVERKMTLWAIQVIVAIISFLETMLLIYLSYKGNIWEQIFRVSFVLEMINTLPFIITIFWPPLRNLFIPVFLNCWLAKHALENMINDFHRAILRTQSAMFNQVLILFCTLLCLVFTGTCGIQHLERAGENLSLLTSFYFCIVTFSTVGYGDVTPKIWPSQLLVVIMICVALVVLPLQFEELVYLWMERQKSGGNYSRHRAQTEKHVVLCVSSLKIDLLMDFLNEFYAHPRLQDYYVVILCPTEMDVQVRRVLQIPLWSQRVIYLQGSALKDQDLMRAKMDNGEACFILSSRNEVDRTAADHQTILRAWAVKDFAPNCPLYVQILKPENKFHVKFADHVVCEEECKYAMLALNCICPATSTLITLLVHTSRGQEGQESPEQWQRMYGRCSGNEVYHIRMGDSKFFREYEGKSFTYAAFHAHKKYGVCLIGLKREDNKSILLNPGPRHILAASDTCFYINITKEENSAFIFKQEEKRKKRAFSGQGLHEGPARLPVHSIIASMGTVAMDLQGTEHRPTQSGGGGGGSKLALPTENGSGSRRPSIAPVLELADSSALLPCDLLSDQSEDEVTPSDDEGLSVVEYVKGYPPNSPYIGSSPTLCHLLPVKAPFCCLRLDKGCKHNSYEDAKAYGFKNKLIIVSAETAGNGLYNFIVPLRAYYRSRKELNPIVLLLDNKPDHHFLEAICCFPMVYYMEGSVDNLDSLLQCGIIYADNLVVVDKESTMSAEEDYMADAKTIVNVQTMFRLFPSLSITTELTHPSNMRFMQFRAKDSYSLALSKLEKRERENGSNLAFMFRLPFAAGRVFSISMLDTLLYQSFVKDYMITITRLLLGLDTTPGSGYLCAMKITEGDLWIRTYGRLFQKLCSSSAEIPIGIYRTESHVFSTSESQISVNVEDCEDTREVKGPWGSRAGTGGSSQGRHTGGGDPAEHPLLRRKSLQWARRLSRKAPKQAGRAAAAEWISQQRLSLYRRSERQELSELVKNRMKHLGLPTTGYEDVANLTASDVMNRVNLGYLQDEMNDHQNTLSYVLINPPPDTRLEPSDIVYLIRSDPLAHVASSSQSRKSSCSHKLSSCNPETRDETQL
Test: KCNT1-WT-Basal Patch Clamp Assay
Format: cell-based
Settings: tetracycline inducible cell line (HEK-TREX); SyncroPatch 384PE automated patch clamp, perforated patch mode, room temperature, step from -80 mV to 0 mV
Description: KCNT1-WT-Basal—Patch Clamp Assay
Inhibition of KCNT1 (KNa1.1, Slack) was evaluated using a tetracycline inducible cell line (HEK-TREX). Currents were recorded using the SyncroPatch 384PE automated, patch clamp system. Pulse generation and data collection were performed with PatchController384 V1.3.0 and DataController384 V1.2.1 (Nanion Technologies). The access resistance and apparent membrane capacitance were estimated using built-in protocols. Current were recorded in perforated patch mode (10 μM escin) from a population of cells. The cells were lifted, triturated, and resuspended at 800,000 cells/ml. The cells were allowed to recover in the cell hotel prior to experimentation. Currents were recorded at room temperature. The external solution contained the following (in mM): NaCl 105, NMDG 40, KCl 4, MgCl2 1, CaCl2 5 and HEPES 10 (pH=7.4, Osmolarity ˜300 mOsm). The extracellular solution was used as the wash, reference and compound delivery solution. The internal solution contained the following (in mM): NaCl 70, KF 70, KCl 10, EGTA 5, HEPES 5 and Escin 0.01 (pH=7.2, Osmolarity ˜295 mOsm). Escin is made at a 5 mM stock in water, aliquoted, and stored at −20° C. The compound plate was created at 2× concentrated in the extracellular solution. The compound was diluted to 1:2 when added to the recording well. The amount of DMSO in the extracellular solution was held constant at the level used for the highest tested concentration. A holding potential of −80 mV with a 100 ms step to 0 mV was used. Mean current was measured during the step to 0 mV. […] The average mean current from 3 sweeps was calculated and the % inhibition of each compound was calculated. The % Inhibition as a function of the compound concentration was fit with a Hill equation to derive IC50, slope, min and max parameters. If KCNT1 inhibition was less than 50% at the highest tested concentration or if an IC50 could not be calculated, then a percent inhibition was reported in place of the IC50.
In this table, “A” indicates IC50 of less than or equal to 1 μM; “B” indicates inhibition of between 1 μM to 20 μM; and “C” indicates inhibition of greater than or equal to 20 μM.

SMILES | IC50 [nM]
CC(=O)N1CCCC(C(=O)N[C@@H](C)c2nc(-c3ccnc(C(F)(F)F)c3)no2)C1 (mixture of isomers) [Compound I-85, 1-acetyl-N-[(1S)-1-[3-[2-(trifluoromethyl)-4-pyridyl]-1,2,4-oxadiazol-5-yl]ethyl]piperidine-3-carboxamide] | ≥ 20000
CC(=O)N1CCCCC1C(=O)N[C@@H](C)c1nc(-c2ccnc(C(F)(F)F)c2)no1 (mixture of isomers) [Compound I-86, 1-acetyl-N-[(1S)-1-[3-[2-(trifluoromethyl)-4-pyridyl]-1,2,4-oxadiazol-5-yl]ethyl]piperidine-2-carboxamide] | ≥ 20000
C[C@H](NC(=O)C1CCC(O)CC1)c1nc(-c2ccnc(C(F)(F)F)c2)no1 (single isomer, unassigned) [Compound I-77] | ≥ 20000
C[C@H](NC(=O)C1CCC(O)CC1)c1nc(-c2ccnc(C(F)(F)F)c2)no1 (single isomer, unassigned) [Compound I-78] | ≥ 20000
C[C@H](NC(=O)c1ccc(C(F)(F)F)cn1)c1nc(-c2ccnc(C(F)(F)F)c2)no1 [Compound I-1, (S)-5-(trifluoromethyl)-N-(1-(3-(2-(trifluoromethyl)pyridin-4-yl)-1,2,4-oxadiazol-5-yl)ethyl)picolinamide] | 1000 to 20000
C[C@H](NC(=O)C1CC(F)(F)C1)c1nc(-c2ccnc(C(F)(F)F)c2)no1 [Compound I-2, (S)-3,3-difluoro-N-(1-(3-(2-(trifluoromethyl)pyridin-4-yl)-1,2,4-oxadiazol-5-yl)ethyl)cyclobutane-1-carboxamide] | 1000 to 20000
C[C@H](NC(=O)c1c[nH]c(C(F)(F)F)n1)c1nc(-c2ccnc(C(F)(F)F)c2)no1 [Compound I-4, (S)-2-(trifluoromethyl)-N-(1-(3-(2-(trifluoromethyl)pyridin-4-yl)-1,2,4-oxadiazol-5-yl)ethyl)-1H-imidazole-4-carboxamide] | ≥ 20000
C[C@H](NC(=O)c1ccncc1)c1nc(-c2ccnc(C(F)(F)F)c2)no1 [Compound I-6, (S)—N-(1-(3-(2-(trifluoromethyl)pyridin-4-yl)-1,2,4-oxadiazol-5-yl)ethyl)isonicotinamide] | ≥ 20000
C[C@H](NC(=O)c1ccccn1)c1nc(-c2ccnc(C(F)(F)F)c2)no1 [Compound I-7, (S)—N-(1-(3-(2-(trifluoromethyl)pyridin-4-yl)-1,2,4-oxadiazol-5-yl)ethyl)picolinamide] | ≥ 20000
C[C@H](NC(=O)c1cccnc1)c1nc(-c2ccnc(C(F)(F)F)c2)no1 [Compound I-11, (S)—N-(1-(3-(2-(trifluoromethyl)pyridin-4-yl)-1,2,4-oxadiazol-5-yl)ethyl)nicotinamide] | 1000 to 20000
C[C@H](NC(=O)C1CCOCC1)c1nc(-c2ccnc(C(F)(F)F)c2)no1 [Compound I-12, (S)—N-(1-(3-(2-(trifluoromethyl)pyridin-4-yl)-1,2,4-oxadiazol-5-yl)ethyl)tetrahydro-2H-pyran-4-carboxamide] | ≥ 20000
C[C@H](NC(=O)Cc1ccccc1)c1nc(-c2ccnc(C(F)(F)F)c2)no1 [Compound I-13, (S)-2-phenyl-N-(1-(3-(2-(trifluoromethyl)pyridin-4-yl)-1,2,4-oxadiazol-5-yl)ethyl)acetamide] | 1000 to 20000
C[C@H](NC(=O)[C@H](C)c1ccccc1)c1nc(-c2ccnc(C(F)(F)F)c2)no1 [Compound I-17, (R)-2-phenyl-N—((S)-1-(3-(2-(trifluoromethyl)pyridin-4-yl)-1,2,4-oxadiazol-5-yl)ethyl)propanamide] | ≤ 1000
C[C@H](NC(=O)c1ccc(Br)s1)c1nc(-c2ccnc(C(F)(F)F)c2)no1 [Compound I-18, (S)-5-bromo-N-(1-(3-(2-(trifluoromethyl)pyridin-4-yl)-1,2,4-oxadiazol-5-yl)ethyl)thiophene-2-carboxamide] | ≤ 1000
CC1CCC(C(=O)N[C@@H](C)c2nc(-c3ccnc(C(F)(F)F)c3)no2)CC1 (stereo partly drawn) [Compound I-19, (S)-4-methyl-N-(1-(3-(2-(trifluoromethyl)pyridin-4-yl)-1,2,4-oxadiazol-5-yl)ethyl)cyclohexane-1-carboxamide] | ≤ 1000

Now from value to compound:

IC50 [nM] | SMILES
≤ 1000 | CC1CC(C(=O)N[C@@H](C)c2nc(-c3ccnc(C(F)(F)F)c3)no2)C1 (mixture of isomers) [Compound I-74, 3-methyl-N-[(1S)-1-[3-[2-(trifluoromethyl)-4-pyridyl]-1,2,4-oxadiazol-5-yl]ethyl]cyclobutanecarboxamide]
≤ 1000 | C[C@H](NC(=O)C1CCC(F)(F)CC1)c1nc(-c2ccnc(C(F)(F)F)c2)no1 [Compound I-3, (S)-4,4-difluoro-N-(1-(3-(2-(trifluoromethyl)pyridin-4-yl)-1,2,4-oxadiazol-5-yl)ethyl)cyclohexane-1-carboxamide]
≤ 1000 | C[C@H](NC(=O)c1nc(C(F)(F)F)cs1)c1nc(-c2ccnc(C(F)(F)F)c2)no1 [Compound I-5, (S)-4-(trifluoromethyl)-N-(1-(3-(2-(trifluoromethyl)pyridin-4-yl)-1,2,4-oxadiazol-5-yl)ethyl)thiazole-2-carboxamide]
≤ 1000 | C[C@H](NC(=O)c1ccccc1)c1nc(-c2ccnc(C(F)(F)F)c2)no1 [Compound I-8, (S)—N-(1-(3-(2-(trifluoromethyl)pyridin-4-yl)-1,2,4-oxadiazol-5-yl)ethyl)benzamide]
≤ 1000 | C[C@H](NC(=O)C1CCCCC1)c1nc(-c2ccnc(C(F)(F)F)c2)no1 [Compound I-9]
≤ 1000 | C[C@H](NC(=O)c1csc(C(F)(F)F)n1)c1nc(-c2ccnc(C(F)(F)F)c2)no1 [Compound I-10, (S)-2-(trifluoromethyl)-N-(1-(3-(2-(trifluoromethyl)pyridin-4-yl)-1,2,4-oxadiazol-5-yl)ethyl)thiazole-4-carboxamide]
≤ 1000 | C[C@H](NC(=O)c1ccnc(C(F)(F)F)c1)c1nc(-c2ccnc(C(F)(F)F)c2)no1 [Compound I-14, (S)-2-(trifluoromethyl)-N-(1-(3-(2-(trifluoromethyl)pyridin-4-yl)-1,2,4-oxadiazol-5-yl)ethyl)isonicotinamide]
≤ 1000 | CC[C@H](NC(=O)Cc1ccccc1)c1nc(-c2ccnc(C(F)(F)F)c2)no1 [Compound I-15, (S)-2-phenyl-N-(1-(3-(2-(trifluoromethyl)pyridin-4-yl)-1,2,4-oxadiazol-5-yl)propyl)acetamide]
≤ 1000 | C[C@H](NC(=O)[C@@H](C)c1ccccc1)c1nc(-c2ccnc(C(F)(F)F)c2)no1 [Compound I-16, (S)-2-phenyl-N—((S)-1-(3-(2-(trifluoromethyl)pyridin-4-yl)-1,2,4-oxadiazol-5-yl)ethyl)propanamide]
